Patent US20260166046A1, “Inhibitors of methionine aminopeptidase-2 and methods of preparation and uses thereof” (Primetime Life Sciences LLC, priority 2022, published 2026)
Like-named read-outs stand apart in the source and are kept apart here.

Experiments:
E. histolytica HM1: IMSS = assay: Trophozoite viability IC50 determination, Amebae assay (ATPLite); type: cell-based; conditions: Entamoeba histolytica, read-out: Cell viability values Mean IC50 (nM) E. histolytica HM1: IMSS
Protocol: (§1) Giardia cultures: Trophozoites of G. lamblia isolates WB and GS were grown anaerobically in borosilicate glass screw-cap culture tubes (Fisher Scientific) at pH 7.0 in modified TYI-S-33 medium. The medium was supplemented with 10% heat-inactivated bovine serum (Sigma-Aldrich) and 0.05% bovine bile (Sigma-Aldrich). To attain low-oxygen-tension conditions, the tubes were filled to 85 to 90% of their total volume capacity and incubated without shaking at 37° C. Subcultures (2×10^5 trophozoites per tube) were made three times a week. Detachment of trophozoites for inoculation was achieved by chilling the cultures on ice for 20 min. Culturing and detachment of Metronidazole-resistant G. lamblia Assemblage A 713M3 and assemblage B 1279-M1 trophozoites followed the same protocol, except that the growth medium was supplemented with metronidazole gradually increasing the concentration to 10 μM. Amebae cultures: E. histolytica strain HM1:IMSS trophozoites were grown at 37° C. in TYI-S-33 medium supplemented with penicillin (100 U/mL) and streptomycin sulfate (100 μg/mL). Trophozoites were grown anaerobically in borosilicate tubes and subcultures were made 1-2 times a week. Trophozoites were detached for inoculation by chilling the cultures on ice for 20 minutes.
(§2) Trophozoite viability IC50determination
(§3) Giardia assays: 10 μL giardia trophozoites in growth medium were plated at a density of 10,000 cells/well in sterile 96-well black clear bottom assay plates. Fumagillin and fumagillol derivatives were 1:3 serially diluted from a 1 μM DMSO stock solution and then 100 μL/well were transferred in duplicate to the assay wells. Metronidazole (control) was 1:3 serially diluted in growth medium from a 100 μM stock solution in DMSO. The assay plates were placed in a BD GasPak™ EZ Container System (BD Diagnostics) to create an anaerobic growth environment. The sealed containers were incubated at 37° C. for 72 hr. Following incubation, 70 μL/well of the ATPLite reagent (PerkinElmer) was added to the assay plates for one-step lysis and ATP level detection. The luminescent signals of the assay plates were measured on an EnSpire 2300 plate reader (PerkinElmer). Concentration response titration points for each compound were fitted to a 4-parameters logistic nonlinear regression model using KaleidaGraph, yielding the IC50value and standard error (SE).
Amebae assays: The protocol is identical to that described above except that the trophozoites were plated at a density of 5000 cells/well because of their larger size.

Recombinant human MetAP2 = molecular target: T1, Recombinant human MetAP2 (Homo sapiens, UniProt P50579); assay: MetAP2 fluorescence assay; type: biochemical; conditions: recombinant human MetAP2, H-Met-Gly-Pro-AMC substrate
T1 construct: purchased Bio-Techne/R&D systems
Protocol: MetAP2 Fluorescence Assay
Recombinant human MetAP2 (Bio-Techne/R&D systems) was diluted to 10 μg/mL in the assay buffer (50 mM HEPES, 0.1 mM CoCl2, 100 mM NaCl, pH 7.5). The substrate, H-Met-Gly-Pro-AMC (Bio-Techne/R&D systems), was diluted to 500 μM with 2 μg/mL of the coupling enzyme, recombinant human dipeptidyl peptidase-4 (Bio-Techne/R&D systems), in assay buffer. 50 μL of 10 μg/mL recombinant human METAP2 were loaded into a flat-bottom black 96-well plate (Greiner Bio), and the reaction was initiated by adding 50 μL of the substrate/dipeptidyl peptidase-4 mixture. The reaction mixture was incubated at room temperature for 10 minutes, and the fluorescence was measured for 5 minutes at excitation and emission wavelengths of 380 nm and 460 nm, respectively, in kinetic mode. For IC50determination, 0.5 μL inhibitor solution was added to the reaction mixture. The reaction rates were used to calculate IC50with KaleidaGraph.

G. lamblia GS = assay: Trophozoite viability IC50 determination, Giardia assay (ATPLite); type: cell-based; conditions: Giardia duodenalis, read-out: Cell viability values Mean IC50 (nM) G. lamblia GS
Protocol: as §1, §2, §3

G. lamblia WB = assay: as above; type: cell-based; conditions: Giardia duodenalis, read-out: Cell viability values Mean IC50 (nM) G. lamblia WB
Protocol: as §1, §2, §3

[1] = trophozoites, 72 hr, anaerobic, ATP level

T1 sequence (P50579 whole entry): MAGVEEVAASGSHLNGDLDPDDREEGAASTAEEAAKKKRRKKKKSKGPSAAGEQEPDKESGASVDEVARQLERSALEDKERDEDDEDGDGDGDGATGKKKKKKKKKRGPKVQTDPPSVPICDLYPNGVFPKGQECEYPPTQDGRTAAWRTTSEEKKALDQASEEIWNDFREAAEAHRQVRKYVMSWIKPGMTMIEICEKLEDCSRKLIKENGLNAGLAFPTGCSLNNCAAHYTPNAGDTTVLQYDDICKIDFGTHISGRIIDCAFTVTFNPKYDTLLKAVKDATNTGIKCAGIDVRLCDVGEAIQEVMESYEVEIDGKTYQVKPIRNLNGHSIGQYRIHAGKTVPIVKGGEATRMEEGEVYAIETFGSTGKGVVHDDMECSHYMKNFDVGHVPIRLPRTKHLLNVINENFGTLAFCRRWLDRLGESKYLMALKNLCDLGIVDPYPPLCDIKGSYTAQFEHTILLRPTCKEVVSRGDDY

| SMILES | IC50 (E. histolytica HM1: IMSS; [1]) | IC50 (Recombinant human MetAP2) | IC50 (G. lamblia GS; [1]) | IC50 (G. lamblia WB; [1]) | IC50 (E. histolytica HM1: IMSS; 72 h) | IC50 (G. lamblia GS; 72 h) | IC50 (G. lamblia WB; 72 h) |
| --- | --- | --- | --- | --- | --- | --- | --- |
| CO[C@@H]1[C@H](OC(=O)N(C)c2ccc(B(O)O)cc2)CC[C@]2(CO2)[C@H]1[C@@]1(C)O[C@@H]1CC=C(C)C [No 20] | 101 to 1000 nM | < 10 nM | 101 to 1000 nM | 101 to 1000 nM | – | – | – |
| CO[C@@H]1[C@H](OC(=O)Nc2cc(B(O)O)cc(C(=O)O)c2)CC[C@]2(CO2)[C@H]1[C@@]1(C)O[C@@H]1CC=C(C)C [No 21] | – | < 10 nM | – | – | 101 to 1000 nM | 101 to 1000 nM | 101 to 1000 nM |
| CO[C@@H]1[C@H](OC(=O)Nc2cc(C(=O)O)ccc2B(O)O)CC[C@]2(CO2)[C@H]1[C@@]1(C)O[C@@H]1CC=C(C)C [No 22] | 101 to 1000 nM | < 10 nM | 101 to 1000 nM | 101 to 1000 nM | – | – | – |
| CO[C@@H]1[C@H](OC(=O)Nc2cc(B(O)O)ccc2Cl)CC[C@]2(CO2)[C@H]1[C@@]1(C)O[C@@H]1CC=C(C)C [No 23] | – | < 10 nM | – | – | 101 to 1000 nM | 101 to 1000 nM | 101 to 1000 nM |
| CO[C@@H]1[C@H](OC(=O)Nc2cc(C#N)ccc2B(O)O)CC[C@]2(CO2)[C@H]1[C@@]1(C)O[C@@H]1CC=C(C)C [No 24] | – | < 10 nM | – | – | > 1000 nM | 101 to 1000 nM | 101 to 1000 nM |
| CO[C@@H]1[C@H](OC(=O)Nc2cc(C#N)cc(B(O)O)c2)CC[C@]2(CO2)[C@H]1[C@@]1(C)O[C@@H]1CC=C(C)C [No 25] | – | < 10 nM | – | – | > 1000 nM | 101 to 1000 nM | 101 to 1000 nM |
| CO[C@@H]1[C@H](OC(=O)Nc2cc(C)cc(B(O)O)c2)CC[C@]2(CO2)[C@H]1[C@@]1(C)O[C@@H]1CC=C(C)C [No 28] | – | < 10 nM | – | – | 101 to 1000 nM | 10.1 to 100 nM | 101 to 1000 nM |
| CO[C@@H]1[C@H](OC(=O)NCc2cccc(B(O)O)c2)CC[C@]2(CO2)[C@H]1[C@@]1(C)O[C@@H]1CC=C(C)C [No 29] | – | < 10 nM | – | – | 101 to 1000 nM | 101 to 1000 nM | 101 to 1000 nM |
| CO[C@@H]1[C@H](OC(=O)NCc2ccc(B(O)O)cc2)CC[C@]2(CO2)[C@H]1[C@@]1(C)O[C@@H]1CC=C(C)C [No 30] | – | < 10 nM | – | – | 101 to 1000 nM | 101 to 1000 nM | 101 to 1000 nM |
| CO[C@@H]1[C@H](OC(=O)NCc2cc(F)ccc2B(O)O)CC[C@]2(CO2)[C@H]1[C@@]1(C)O[C@@H]1CC=C(C)C [No 31] | – | < 10 nM | – | – | > 1000 nM | 101 to 1000 nM | 101 to 1000 nM |
| CO[C@@H]1[C@H](OC(=O)Nc2cc(B(O)O)cc([N+](=O)[O-])c2)CC[C@]2(CO2)[C@H]1[C@@]1(C)O[C@@H]1CC=C(C)C [No 33] | – | < 10 nM | – | – | > 1000 nM | 101 to 1000 nM | > 1000 nM |
| CO[C@@H]1[C@H](OC(=O)Nc2ccc(F)c(F)c2B(O)O)CC[C@]2(CO2)[C@H]1[C@@]1(C)O[C@@H]1CC=C(C)C [No 34] | > 1000 nM | < 10 nM | 101 to 1000 nM | > 1000 nM | – | – | – |
| CO[C@@H]1[C@H](OC(=O)Nc2c(F)cccc2B(O)O)CC[C@]2(CO2)[C@H]1[C@@]1(C)O[C@@H]1CC=C(C)C [No 35] | > 1000 nM | < 10 nM | 101 to 1000 nM | > 1000 nM | – | – | – |
| CO[C@@H]1[C@H](OC(=O)Nc2ccncc2B(O)O)CC[C@]2(CO2)[C@H]1[C@@]1(C)O[C@@H]1CC=C(C)C [No 37] | – | < 10 nM | – | – | > 1000 nM | 10.1 to 100 nM | > 1000 nM |
| CO[C@@H]1[C@H](OC(=O)Nc2ccc3sc(B(O)O)cc3c2)CC[C@]2(CO2)[C@H]1[C@@]1(C)O[C@@H]1CC=C(C)C [No 38] | – | < 10 nM | – | – | > 1000 nM | > 1000 nM | > 1000 nM |
| CO[C@@H]1[C@H](OC(=O)Nc2csc(B(O)O)c2)CC[C@]2(CO2)[C@H]1[C@@]1(C)O[C@@H]1CC=C(C)C [No 40] | – | < 10 nM | – | – | > 1000 nM | 101 to 1000 nM | > 1000 nM |
| CO[C@@H]1[C@H](OC(=O)N2CCc3cc(B(O)O)cnc3C2)CC[C@]2(CO2)[C@H]1[C@@]1(C)O[C@@H]1CC=C(C)C [No 41] | – | < 10 nM | – | – | > 1000 nM | 10.1 to 100 nM | 101 to 1000 nM |
| CO[C@@H]1[C@H](OC(=O)NCc2c(F)cc(B(O)O)cc2F)CC[C@]2(CO2)[C@H]1[C@@]1(C)O[C@@H]1CC=C(C)C [No 43] | – | < 10 nM | – | – | > 1000 nM | 101 to 1000 nM | > 1000 nM |
| CO[C@@H]1[C@H](OC(=O)N2CCc3cc(B(O)O)ccc3C2)CC[C@]2(CO2)[C@H]1[C@@]1(C)O[C@@H]1CC=C(C)C [No 44] | – | < 10 nM | – | – | > 1000 nM | 10.1 to 100 nM | > 1000 nM |
| CO[C@@H]1[C@H](OC(=O)Nc2cccc(B(O)O)c2Cl)CC[C@]2(CO2)[C@H]1[C@@]1(C)O[C@@H]1CC=C(C)C [No 45] | – | < 10 nM | – | – | > 1000 nM | 101 to 1000 nM | > 1000 nM |
| CO[C@@H]1[C@H](OC(=O)Nc2c(B(O)O)ccnc2Cl)CC[C@]2(CO2)[C@H]1[C@@]1(C)O[C@@H]1CC=C(C)C [No 47] | – | < 10 nM | – | – | > 1000 nM | 101 to 1000 nM | > 1000 nM |
| CO[C@@H]1[C@H](OC(=O)NC(CF)c2ccc(B(O)O)cc2)CC[C@]2(CO2)[C@H]1[C@@]1(C)O[C@@H]1CC=C(C)C (stereo partly shown) [No 48] | – | < 10 nM | – | – | > 1000 nM | 101 to 1000 nM | > 1000 nM |
| CO[C@@H]1[C@H](OC(=O)Nc2cc(B(O)O)c3occc3c2)CC[C@]2(CO2)[C@H]1[C@@]1(C)O[C@@H]1CC=C(C)C [No 49] | – | < 10 nM | – | – | > 1000 nM | 10.1 to 100 nM | 101 to 1000 nM |
| CO[C@@H]1[C@H](OC(=O)Nc2cc(B(O)O)cc(F)n2)CC[C@]2(CO2)[C@H]1[C@@]1(C)O[C@@H]1CC=C(C)C [No 50] | – | < 10 nM | – | – | > 1000 nM | 10.1 to 100 nM | > 1000 nM |
| CO[C@@H]1[C@H](OC(=O)N2CCOc3c(B(O)O)cccc32)CC[C@]2(CO2)[C@H]1[C@@]1(C)O[C@@H]1CC=C(C)C [No 51] | – | < 10 nM | – | – | 101 to 1000 nM | < 10 nM | 101 to 1000 nM |
